Assay results as given in patent publication US10151753B2, “Microfluidic devices for isolating particles” (The General Hospital Corporation, priority 2013, dated 2018).

How the values were obtained:
[1] = system: Rec-1 cells; assay: Ibrutinib-BFL fluorescence imaging of captured cells on the microfluidic device; assay type: cell-based; settings: Rec-1 mantle cell lymphoma cells, FIG. 24
[2] = system: Jurkat cells; assay: as above; assay type: cell-based; settings: FIG. 24

## Cc1cc(C)n2c1C=C1C=CC(CCC(=O)NCC=CC(=O)N3CCCC(n4nc(-c5ccc(Oc6ccccc6)cc5)c5c(N)ncnc54)C3)=[N+]1[B-]2(F)F (centres unmarked) [Ibrutinib-BFL]
[1]
  fluorescence of cells when incubated with the imaging drug (binding): exhibit fluorescence
[2]
  fluorescence of cells when incubated with the imaging drug (binding): do not exhibit fluorescent
